{
  "source": "patent EP2642290A1",
  "about": "“Glatiramer acetate human monocytic cell line-based potency assay” (Synthon BV, priority 2012, dated 2013)",
  "key": {"THP-1 cells [1]": {"system": "THP-1 cells", "assay": "Human monocytic cell line-based potency assay: sIL-1Ra expression (ELISA) in THP-1 cells stimulated with PMA and LPS and exposed to glatiramer acetate", "protocol": "Human monocytic cells are brought into a suitable medium, e.g. RPMI 1640 medium, and are stimulated with an effective amount of PMA and LPS, contacted with GA (0-250 μg/ml) and the effect on the expression of a monocyte anti-inflammatory cytokine, such as sIL-1Ra, is measured. […] Dose-response curves are generated by GA activation of monocytic cells and EC50 values are calculated using a non-linear four-parameter logistic model on semi-log transformed data, as described in the draft USP chapter <1034> on analysis of biological assays.\n• THP-1 cells are harvested and centrifugated at 200g for 5 minutes; • Resuspend the pellet in 10 ml fresh pre-warmed RPMI-1640+10% FBS+2mM L-Glutamine; • Take a sample for cell counting; • After cell count adjust the cell density to 5 x 10^5 cells/ml and add 100 μl of the THP-1 cell suspension to the wells of a 96-wellsplate (Corning Costar #3596); • Fill the boundary wells of the plate with CGM and place the plate temporally into a humidified incubator at 37 ± 1 °C and 5.0 ± 1% CO2.\n• In the dilution plate prepare the glatiramer acetate dilution series. The stock concentration is 20 mg/ml, which needs to be diluted in a 96-wellsplate to a working stock concentration of 1.2 mg/ml for the highest dilution on the dilution plate; • Pipette 75 μl RPMI-1640+10% FBS in column 2-8 (row B-G) of the dilution plate and pipette 235 μl RPMI-1640+10% FBS in column 9 (row B-G). Note: Other wells of the dilution 96-wellsplate remain unused; • Add 15 μl of reference glatiramer acetate and the test sample of glatiramer acetate (20 mg/ml) into column 9 (row B-G) of the dilution plate, giving a new concentration of 1.2 mg/ml; • Serially dilute 150 μl down, from column 9 to 2. Mix at each step by pipetting up and down 5 times; • Add 50 μl of the LPS/PMA working solution to the cell plate, with exception of the boundary wells.The final concentrations are 25 ng/ml LPS and 5 ng/ml PMA; • Add 50 μl of the glatiramer acetate dilutions to the plate containing the cells and the LPS and PMA working solution. The final dose-range of glatiramer acetate is between 12.5 and 250 μg/ml; • Incubate cells for 72 hours at 37°C in an incubator with 5% CO2, 93% humidity.\n• After 72 hours of incubation centrifuge the 96-well plate at 200g for 5 minutes. • Transfer 150 μl of the cell-free supernatant/well to a storage plate. • Supernatant of the samples will be used for analysis by IL-1Ra/Il-1F3 ELISA. • sIL-1Ra is determined using the sIL-1Ra ELISA kit from Quantikine, R&D, Minneapolis, MN (Cat # DRAOOB) following the manufacturer's instructions. The remainder of the supernatant is stored in a closed storage plate at -80°C.\nData on sIL-1Ra concentration are analyzed for relative potency as described in draft USP chapter <1034> section 3.4 on nonlinear models for quantitative responses. The software package GraphPad Prism (5.x) is used for fitting to a nonlinear model to the data: • sIL-1Ra data (in pg/ml) are plotted against the log transformed glatiramer acetate concentration (in log μg/ml); • A four-parameter logistic model is constructed to fit the dose response curves of the Reference (Ref) and the test batch (TA). […]"}, "THP-1 cells [2]": {"system": "THP-1 cells", "assay": "Human monocytic cell line-based potency assay: sIL-1Ra expression (ELISA) in THP-1 cells stimulated with PMA and LPS and exposed to glatiramer acetate", "conditions": "THP-1 cells treated with PMA alone or LPS alone instead of the combination"}},
  "note": "“And” between values parts separate entries of the source, which are not always exact repeats. Equal entries are not always repeated.",
  "data": [
    {"substance": "glatiramer acetate", "values": [
      {"measurement": "Bottom", "setting": "THP-1 cells [1]; bottom asymptote of constrained four-parameter logistic fit of sIL-1Ra response (sIL-1Ra data in pg/ml), 5 ng/ml PMA and 25 ng/ml LPS, 72 hours, four independent curves A-D of the same material, common value", "value": -4031},
      {"measurement": "Relative potency (%)", "setting": "THP-1 cells [1]; relative to curve A, arbitrarily set at 100%, all curves are 100% samples of the same material, curves A-D", "value": "100.0% and 128.5% and 118.5% and 107.7%"},
      {"measurement": "EC50", "setting": "THP-1 cells [1]; sIL-1Ra response, glatiramer acetate concentration in μg/ml, 5 ng/ml PMA and 25 ng/ml LPS, 72 hours, four independent curves A-D of the same material, in µg/mL", "value": "42.05 and 54.02 and 49.84 and 45.28"},
      {"measurement": "Slope", "setting": "THP-1 cells [1]; slope of constrained four-parameter logistic fit of sIL-1Ra response, 5 ng/ml PMA and 25 ng/ml LPS, curves A-D, common value", "value": 3.306},
      {"measurement": "Top", "setting": "THP-1 cells [1]; top asymptote of constrained four-parameter logistic fit of sIL-1Ra response (sIL-1Ra data in pg/ml), 5 ng/ml PMA and 25 ng/ml LPS, 72 hours, curves A-D, common value", "value": 53602},
      {"measurement": "GA-induced cytokine expression", "setting": "THP-1 cells [2]", "value": "neither PMA nor LPS treatment of THP-1 cells alone results in GA-induced cytokine expression"}
    ]}
  ]
}
